{"source": "patent US20140018424A1", "about": "“PREVENTIVE EFFECT OF CITRULLINE ON THE SPONTANEOUS DEVELOPMENT OF TUMORS” (UNIVERSITE PARIS DESCARTES, priority 2011, published 2014)", "assay_type_in_all_cases": "in vivo, male Sprague-Dawley rats", "key": {"[1]": {"tested_on": "polyamines", "test": "Level of polyamines in liver, jejunum and ileum of aged rats", "description": "(§1) Thirty-nine male Sprague-Dawley rats aged 20 months and free of tumours (Charles River, L'Arbresle, France) are used. They are raised individually in cages, at a temperature of 20-23° C., subjected to a cycle of 12 hours of light alternating with 12 hours of darkness. They have free access to water. For the acclimatization period, all the rats are fed a standard diet (59% carbohydrates, 3% lipids, 17% proteins and 21% fibres) ad libitum (UAR of 0.4 Dietex, Villemoisson-sur-Orge, France) for 2 weeks. The animals are cared for in accordance with French regulations on the protection of animals used for experimental and scientific purposes (D 2001-486) and with the Regulations of the European Community (Official Journal of the European Community, L538 12:18:1986).\n(§2) After the acclimatization period, the rats are randomly divided into 2 groups.\nIn the “citrulline” group (CIT, n=19), the rats are fed ad libitum for 12 weeks with a citrulline-based supplement (1 g.kg^−1.day^−1 of citrulline) mixed with their standard diet. The dose of citrulline is calculated by extrapolation of the doses used in humans, taking into account the fact that the metabolic rate and nitrogen requirements are 10 times greater in rodents than those measured in humans and very close to the dose of arginine administered to rats for 12 weeks by Jobgen W. et al. (J Nutr 2009;139:230-7). This dose corresponds to approximately 9% of the nitrogen intake, i.e. approximately 7g/day in the healthy adult volunteer.\nIn the “non-essential amino acids” group (NEAA, n=20), the rats are fed ad libitum for 12 weeks with a standard food rendered isonitrogenous with respect to the citrulline group by the addition of non-essential amino acids: […], serine, alanine and glycine in an equimolar ratio.\nThe rats are euthanized in the post-absorptive state after treatment for 12 weeks. The statistical studies are carried out using Statview® software"}, "[2]": {"test": "Body weight of aged rats before and after 12 weeks of supplementation"}, "[3]": {"tested_on": "tumours", "test": "Incidence of tumours after euthanasia in aged rats", "conditions": "after euthanasia at 12 weeks; NEAA vs CIT p<0.05", "description": "as §1, §2\n(§3) In the “citrulline” group (CIT, n=19), the rats are fed ad libitum for 12 weeks with a citrulline-based supplement (1 g.kg^−1.day^−1 of citrulline) mixed with their standard diet. The dose of citrulline is calculated by extrapolation of the doses used in humans, taking into account the fact that the metabolic rate and nitrogen requirements are 10 times greater in rodents than those measured in humans and very close to the dose of arginine administered to rats for 12 weeks by Jobgen W. et al. (J Nutr 2009;139:230-7). […]"}, "[4]": {"tested_on": "aged healthy rats", "test": "Mortality over 12 weeks in aged healthy rats fed supplemented diet", "conditions": "rats aged 20 months, supplemented diet ad libitum for 12 weeks; NEAA vs CIT p<0.05", "description": "as §1, §2, §3"}}, "data": [{"smiles": "NC(=O)NCCCC(N)C(=O)O", "note": "(stereo not drawn) [CIT, 2-amino-5-(carbamoylamino)pentanoic acid]", "values": [{"measurement": "effect of supplementation on putrescine", "setting": "[1]; 12 weeks of supplementation", "value": "significant increase"}, {"measurement": "Ileum putrescine", "setting": "[1]; after 12 weeks, p 0.028", "value": "79.8 ± 25"}, {"measurement": "Liver putrescine", "setting": "[1]; after 12 weeks, p 0.034", "value": "17.1 ± 14.5"}, {"measurement": "Ileum spermidine", "setting": "[1]; after 12 weeks, p NS", "value": "374 ± 70"}, {"measurement": "Ileum spermine", "setting": "[1]; after 12 weeks, p NS", "value": "203 ± 43"}, {"measurement": "Jejunum putrescine", "setting": "[1]; after 12 weeks, p NS", "value": "82.7 ± 36"}, {"measurement": "Jejunum spermidine", "setting": "[1]; after 12 weeks, p NS", "value": "478 ± 200"}, {"measurement": "Jejunum spermine", "setting": "[1]; after 12 weeks, p NS", "value": "297 ± 88"}, {"measurement": "Liver spermidine", "setting": "[1]; after 12 weeks, p NS", "value": "372 ± 90"}, {"measurement": "Liver spermine", "setting": "[1]; after 12 weeks, p NS", "value": "557 ± 245"}, {"measurement": "effect of supplementation on body weight", "setting": "[2]; 12 weeks, 1 g.kg^-1.day^-1 in the diet", "value": "does not affect the body weight"}, {"measurement": "Final body weight", "setting": "[2]; after the 12-week supplementation, NEAA vs CIT N.S", "value": "630 ± 13"}, {"measurement": "Initial body weight", "setting": "[2]; before the 12-week supplementation, NEAA vs CIT N.S", "value": "669 ± 16"}, {"measurement": "incidence of tumours (rats with tumours/rats assessed)", "setting": "[3]", "value": "0/19"}, {"measurement": "mortality over 12 weeks (dead rats/rats in group)", "setting": "[4]", "value": "0/19"}]}]}
